Assay results: patent US10167262B2, “Herbicidal substituted 3-arylpyrazoles” (FMC CORPORATION, priority 2014, dated 2019)
Like-named read-outs stand apart in the source and are kept apart here.

How the values were obtained:
Format in all cases: in vivo
[1] = system: galium (catchweed bedstraw, Galium aparine); assay: Test C pre-/postemergence greenhouse test, plant response rating 0-100; conditions: Galium; for pest or weed control at 62 g/ha: 62 g ai/ha; for pest or weed control at 125 g/ha: 125 g ai/ha; for pest or weed control at 250 g/ha: 250 g ai/ha; for pest or weed control at 500 g/ha: 500 g ai/ha
In short: (§1)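 Seeds were sown in a loam soil–sand blend and sprayed preemergence with test chemicals in a non-phytotoxic solvent mixture containing surfactant; postemergence plants in peat/vermiculite medium were treated at 2–18 cm (1- to 4-leaf stage). After 13 to 15 days in the greenhouse, injury was rated visually against untreated controls.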

[2] = system: corn (Zea mays); assay: as above; conditions: Zea mays, pre-emergence, Preemergence
In short: as §1

[3] = system: pigweed (Amaranthus retroflexus); assay: as above; conditions: Amaranthus retroflexus; for pest or weed control at 62 g/ha: 62 g ai/ha; for pest or weed control at 250 g/ha: 250 g ai/ha; for pest or weed control at 500 g/ha: 500 g ai/ha
In short: as §1

[4] = system: giant foxtail (Setaria faberii); assay: as above; conditions: Setaria faberi; for pest or weed control at 62 g/ha: 62 g ai/ha; for pest or weed control at 125 g/ha: 125 g ai/ha; for pest or weed control at 250 g/ha: 250 g ai/ha; for pest or weed control at 500 g/ha: 500 g ai/ha
In short: as §1

[5] = system: lambsquarters (Chenopodium album); assay: as above; conditions: Chenopodium album; for pest or weed control at 62 g/ha: 62 g ai/ha; for pest or weed control at 125 g/ha: 125 g ai/ha; for pest or weed control at 250 g/ha: 250 g ai/ha; for pest or weed control at 500 g/ha: 500 g ai/ha
In short: as §1

[6] = system: winter wheat (Triticum aestivum); assay: as above; conditions: Triticum aestivum; for plant injury at 62 g/ha: 62 g ai/ha; for plant injury at 125 g/ha: 125 g ai/ha; for plant injury at 250 g/ha: 250 g ai/ha; for plant injury at 500 g/ha: 500 g ai/ha
In short: as §1

[7] = system: soybean (Glycine max); assay: as above; conditions: Glycine max; for plant injury at 62 g/ha: 62 g ai/ha; for plant injury at 125 g/ha: 125 g ai/ha; for plant injury at 250 g/ha: 250 g ai/ha; for plant injury at 500 g/ha: 500 g ai/ha
In short: as §1

[8] = system: johnsongrass (Sorghum halepense); assay: as above; conditions: Sorghum halepense; for pest or weed control at 62 g/ha: 62 g ai/ha; for pest or weed control at 125 g/ha: 125 g ai/ha; for pest or weed control at 250 g/ha: 250 g ai/ha; for pest or weed control at 500 g/ha: 500 g ai/ha
In short: as §1

[9] = system: yellow nutsedge (Cyperus esculentus); assay: as above; conditions: Cyperus; for pest or weed control at 62 g/ha: 62 g ai/ha; for pest or weed control at 125 g/ha: 125 g ai/ha; for pest or weed control at 250 g/ha: 250 g ai/ha; for pest or weed control at 500 g/ha: 500 g ai/ha
In short: as §1

[10] = system: Italian ryegrass (Lolium multiflorum); assay: as above; conditions: Lolium multiflorum; for pest or weed control at 62 g/ha: 62 g ai/ha; for pest or weed control at 125 g/ha: 125 g ai/ha; for pest or weed control at 250 g/ha: 250 g ai/ha; for pest or weed control at 500 g/ha: 500 g ai/ha
In short: as §1

[11] = system: kochia (Kochia scoparia); assay: Test C postemergence greenhouse test, plant response rating 0-100; conditions: Bassia scoparia, post-emergence
In short: (§2)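 Visual rating vs. controls, 0 (no effect) to 100 (complete control), 13–15 d after postemergence treatment. Potted plants, 1- to 4-leaf stage (2–18 cm), greenhouse-held.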

[12] = system: wild oat (Avena fatua); assay: as above; conditions: Avena fatua, post-emergence
In short: as §2

[13] = system: chickweed (common chickweed, Stellaria media); assay: as above; conditions: Stellaria media, post-emergence
In short: as §2

[14] = post-emergence, Postemergence, read-out: Plant response rating (0 to 100), Galium
[15] = post-emergence, Postemergence, scale 0 to 100
[16] = pre-emergence, Preemergence, read-out: Plant response rating, Galium
[17] = post-emergence, Postemergence, read-out: Plant response rating (0 to 100), Foxtail, Giant
[18] = pre-emergence, Preemergence, read-out: Plant response rating, Foxtail, Giant
[19] = post-emergence, Postemergence, read-out: Plant response rating (0 to 100), Lambsquarters
[20] = pre-emergence, Preemergence, read-out: Plant response rating, Lambsquarters
[21] = post-emergence, Postemergence, read-out: Plant response rating (0 to 100), Wheat
[22] = pre-emergence, Preemergence, read-out: Plant response rating, Wheat
[23] = post-emergence, Postemergence, read-out: Plant response rating (0 to 100), Soybean
[24] = pre-emergence, Preemergence, read-out: Plant response rating, Soybean
[25] = post-emergence, Postemergence, read-out: Plant response rating (0 to 100), Johnsongrass
[26] = pre-emergence, Preemergence, read-out: Plant response rating, Johnsongrass
[27] = post-emergence, Postemergence, read-out: Plant response rating (0 to 100), Nutsedge, Yellow
[28] = pre-emergence, Preemergence, read-out: Plant response rating, Nutsedge, Yellow
[29] = post-emergence, Postemergence, read-out: Plant response rating (0 to 100), Ryegrass, Italian
[30] = pre-emergence, Preemergence, read-out: Plant response rating, Ryegrass, Italian

C#CCn1cc(C(=O)c2ccccc2)c(-c2cc(Cl)cc(Cl)c2)n1 [Compound 39, [3-(3,5-dichlorophenyl)-1-(2-propyn-1-yl)-1H-pyrazol-4-yl]phenylmethanone]
100%: pest or weed control at 250 g/ha [5, 15] | pest or weed control at 500 g/ha [5, 15] | pest or weed control at 125 g/ha [5, 20] | pest or weed control at 250 g/ha ([5]; pre-emergence, Preemergence) | pest or weed control at 500 g/ha ([5]; pre-emergence, Preemergence) | pest or weed control at 250 g/ha ([13]; 250 g ai/ha, scale 0 to 100) | pest or weed control at 500 g/ha ([13]; 500 g ai/ha, scale 0 to 100)
45%: pest or weed control at 62 g/ha ([3]; pre-emergence, Preemergence, read-out: Plant response rating, Pigweed)
0%: pest or weed control at 62 g/ha [1, 14] | pest or weed control at 125 g/ha [1, 14] | pest or weed control at 250 g/ha [1, 15] | pest or weed control at 500 g/ha [1, 15] | pest or weed control at 62 g/ha [1, 16] | pest or weed control at 125 g/ha [1, 16] | Corn plant response rating (crop injury, 0 = no effect, 100 = complete kill) at 62 g/ha ([2]; 62 g ai/ha) | Corn plant response rating (crop injury, 0 = no effect, 100 = complete kill) at 125 g/ha ([2]; 125 g ai/ha) | Corn plant response rating (crop injury, 0 = no effect, 100 = complete kill) at 250 g/ha ([2]; 250 g ai/ha) | pest or weed control at 62 g/ha [4, 17] | pest or weed control at 125 g/ha [4, 17] | pest or weed control at 250 g/ha [4, 15] | pest or weed control at 500 g/ha [4, 15] | pest or weed control at 62 g/ha [4, 18] | pest or weed control at 125 g/ha [4, 18] | pest or weed control at 250 g/ha ([4]; pre-emergence, Preemergence) | pest or weed control at 500 g/ha ([4]; pre-emergence, Preemergence) | plant injury at 62 g/ha [6, 21] | plant injury at 125 g/ha [6, 21] | plant injury at 250 g/ha [6, 15] | plant injury at 500 g/ha [6, 15] | plant injury at 62 g/ha [6, 22] | plant injury at 125 g/ha [6, 22] | plant injury at 250 g/ha ([6]; pre-emergence, Preemergence) | plant injury at 500 g/ha ([6]; pre-emergence, Preemergence) | plant injury at 62 g/ha [7, 23] | plant injury at 125 g/ha [7, 23] | plant injury at 250 g/ha [7, 15] | plant injury at 500 g/ha [7, 15] | plant injury at 62 g/ha [7, 24] | plant injury at 125 g/ha [7, 24] | plant injury at 250 g/ha ([7]; pre-emergence, Preemergence) | plant injury at 500 g/ha ([7]; pre-emergence, Preemergence) | pest or weed control at 62 g/ha [8, 25] | pest or weed control at 125 g/ha [8, 25] | pest or weed control at 62 g/ha [8, 26] | pest or weed control at 125 g/ha [8, 26] | pest or weed control at 250 g/ha ([8]; pre-emergence, Preemergence) | pest or weed control at 500 g/ha ([8]; pre-emergence, Preemergence) | pest or weed control at 62 g/ha [9, 27] | pest or weed control at 125 g/ha [9, 27] | pest or weed control at 250 g/ha [9, 15] | pest or weed control at 62 g/ha [9, 28] | pest or weed control at 125 g/ha [9, 28] | pest or weed control at 250 g/ha ([9]; pre-emergence, Preemergence) | pest or weed control at 500 g/ha ([9]; pre-emergence, Preemergence) | pest or weed control at 62 g/ha [10, 29] | pest or weed control at 125 g/ha [10, 29] | pest or weed control at 250 g/ha [10, 15] | pest or weed control at 500 g/ha [10, 15] | pest or weed control at 62 g/ha [10, 30] | pest or weed control at 125 g/ha [10, 30] | pest or weed control at 250 g/ha ([10]; pre-emergence, Preemergence) | pest or weed control at 500 g/ha ([10]; pre-emergence, Preemergence) | pest or weed control at 62 g/ha ([12]; 62 g ai/ha) | pest or weed control at 125 g/ha ([12]; 125 g ai/ha) | pest or weed control at 250 g/ha ([12]; 250 g ai/ha, scale 0 to 100)
95%: pest or weed control at 500 g/ha ([3]; pre-emergence, Preemergence)
85%: pest or weed control at 250 g/ha ([3]; pre-emergence, Preemergence)
80%: pest or weed control at 500 g/ha ([1]; pre-emergence, Preemergence) | pest or weed control at 62 g/ha [5, 19] | pest or weed control at 125 g/ha [5, 19] | pest or weed control at 500 g/ha ([11]; 500 g ai/ha, scale 0 to 100)
55%: pest or weed control at 250 g/ha ([11]; 250 g ai/ha, scale 0 to 100)
15%: pest or weed control at 62 g/ha ([11]; 62 g ai/ha)
75%: pest or weed control at 125 g/ha ([3]; pre-emergence, Preemergence, 125 g ai/ha, read-out: Plant response rating, Pigweed)
5%: pest or weed control at 250 g/ha ([1]; pre-emergence, Preemergence) | pest or weed control at 250 g/ha [8, 15] | pest or weed control at 500 g/ha [8, 15] | pest or weed control at 500 g/ha [9, 15] | pest or weed control at 500 g/ha ([12]; 500 g ai/ha, scale 0 to 100)
30%: pest or weed control at 62 g/ha [5, 20]
40%: pest or weed control at 125 g/ha ([11]; 125 g ai/ha)
98%: pest or weed control at 250 g/ha [3, 15] | pest or weed control at 500 g/ha [3, 15] | pest or weed control at 62 g/ha ([13]; 62 g ai/ha) | pest or weed control at 125 g/ha ([13]; 125 g ai/ha)
90%: pest or weed control at 62 g/ha ([3]; post-emergence, Postemergence, read-out: Plant response rating (0 to 100), Pigweed)
